Values quoted from earlier work as cited in US20160174564A1, “BIOCIDE-FREE PREWETTED SPONGE CLOTH” (Kalle GmbH, priority 2014, published 2016).

Conditions: saturated solutions of different salts; 20° C.
For `[Cl-].[Cl-].[Sr+2]` [SrCl2], the aw value is given as 0.708.
For `[Cl-].[K+]` [KCl], the aw value is given as 0.843.
In the case of `[Cl-].[Li+]` [LiCl], the aw value is listed as 0.112.
In the case of `O=C([O-])[O-].[K+].[K+]` [Sample K2CO3, K2CO3], the aw value is given as 0.438.
In the case of `[Cl-].[Na+]` [NaCl], the aw value is listed as 0.753.
In the case of `[Br-].[Na+]` [NaBr], the aw value is given as 0.577.
In the case of `O=[N+]([O-])[O-].O=[N+]([O-])[O-].[Mg+2]` [Mg(NO3)2], the aw value is listed as 0.529.
For `[Cl-].[Cl-].[Mg+2]` [MgCl2], the aw value is listed as 0.327.
